{"source": "patent US20230381348A1", "about": "“BIFUNCTIONAL MACROCYCLIC CHELATE, CONJUGATE, METAL COMPLEX AND USE THEREOF” (Jyams Pet Research & Development Limited, priority 2021, published 2023)", "key": {"[1]": {"details": "male, SD, rat, in vivo, iv", "procedure": "About 0.1-0.2 mL of blood was collected from jugular vein plexus of the experimental animals at 5 min, 15 min, 30 min, 1 h, 2 h, 3 h, 4 h, 5 h, 6 h, 8 h, 12 h, 24 h, 48 h, 72 h, 96 h, 120 h, 144 h, and 168 h after the administration, and the rats were weighed for subsequent assay. Blood was collected from 6 males in each group at each time point, and 12 animals were cross-sampled. Each sample was subjected to gamma counting for 30 s."}, "[2]": {"test": "In vitro stability of labeled product in mouse serum (radiochemical purity after 48 h)", "type": "in vitro ADME", "method": "(§1) HPLC: standard UV peak Rt=10.548 min, radioactive peak Rt=10.809 min, corresponding to the peak position of the standard."}, "[3]": {"type": "physicochemical", "details": "48 h", "method": "as §1"}, "LNCap tumor-bearing mice": {"test_system": "LNCap tumor-bearing mice", "test": "PET imaging after tail vein injection", "type": "in vivo", "details": "single intravenous administration, 200 μCi", "method": "(§2) Method: LNCap tumor-bearing mice were injected with the complex ^89Zr-Dar-PSMA-617 (200 μCi) prepared in Example 9 through tail vein, while dynamic scan was performed for 60 min during the administration, and static whole body scan was performed for 10 min at different time points during 2-216 h after the administration. Refer to FIG. 1 for the mouse PET scanning image.\nas §2, with “complex” for “complex ^89Zr-Dar-PSMA-617”, “Example 7” for “Example 9”, “vein,” for “vein, while”, “and the” for “and”, “points of 2-192” for “points during 2-216”, “FIG. 2” for “FIG. 1”\nMethod: LNCap tumor-bearing mice were injected with the complex ^68Ga-Dar-PSMA-617 (200 μCi) prepared in Example 10 through tail vein, dynamic scan was performed for 60 min during the administration, and the static whole body scan was performed for 10 min at different time points of 2-6 h after the administration. Refer to FIG. 3 for the mouse PET scanning image."}, "LNCap cells [4]": {"test_system": "LNCap cells", "test": "Experiment A internalization experiment", "type": "cell-based", "method": "(§3) LNCap cells were cultured to logarithmic growth phase. After digestion with pancreatin, the resultant mixture was adjusted with complete medium into a cell suspension with a cell density of […]. Cells were inoculated in 24-well plate with 0.5-1.0 mL cells per well and the number of 1×10^5 cells per well (inoculated 2 d in advance for cell experiment). ^177Lu-Dar, ^177Lu-Dar-PSMA-617, ^177Lu-DOTA, and ^177Lu-DOTA-PSMA-617 were respectively diluted with a basic medium (with 1% HSA added) to 10 μCi/mL for subsequent use.\n(§4) Cells were incubated in 37° C. incubator for 1 h, 4 h, and 24 h.\nInternalization experiment: after incubation was completed, the cell suspension was collected, 0.5 mL of pre-cooled pickling solution was added, after incubation for 1 min at room temperature, the pickling solution was removed; and the resultant mixture was washed once with 0.5 mL of PBS, and cell pellet was collected.\n(§5) Cell pellet was collected for gamma counting. Both the blank and standard tubes were assayed simultaneously in each test.\nCell internalization rate=CPM of the cell lysate after acid pickling/CPM of the uptake experiment cell lysate×100%"}, "LNCap cells [5]": {"test_system": "LNCap cells", "test": "Experiment A efflux experiment", "type": "cell-based", "details": "then 24 h in complete medium", "method": "as §3, §4\nEfflux experiment: after the incubation was completed, the cell suspension was collected, washed once with 0.5 mL of complete medium, added with 0.5 mL of complete medium, after resuspension, the resultant mixture was placed into original wells, incubated at 37° C. for 24 h, and then the supernatant was collected, and washed once with 0.5 mL of PBS. Cell pellet was collected after centrifugation of the supernatant and PBS washing solution; and 0.5 mL of 1 M lysis solution was utilized to digest and lyse cells in the original wells, and combined with the cell pellet.\nas §5\nCell efflux rate=CPM of the efflux experiment cell lysate/CPM of the uptake experiment cell lysate×100%"}, "LNCap cells [6]": {"test_system": "LNCap cells", "test": "Experiment A cell uptake experiment (cell binding rate)", "type": "cell-based", "details": "for uptake rate of the blocking group: unlabeled ligand 200 times that of labeled subject; for uptake rate: 37° C.", "method": "as §3\nUnlabeled ligands Dar, DOTA, Dar-PSMA-617, and DOTA-PSMA-617 were respectively formulated to be 10 μg/mL and 25 μg/mL with basic medium (with 1% HSA added) for subsequent use.\nas §4\nUptake experiment: blocking groups were set in cell uptake experiment, and unlabeled ligands were added in an amount of 200 times that of labeled subjects. After incubation was completed, the cell suspension was collected, followed by centrifugation at 1500 rpm for 5 min, cell pellet was collected, the supernatant was removed, the cell pellet was washed once with 0.5 mL of pre-cooled PBS, and the resultant cell pellet was collected.\nas §5\nCell binding rate=CPM of the cell lysate/CPM of the standard tube×100%"}, "[7]": {"test_system": "LNCap tumor-bearing mice animal models", "test": "^177Lu-Dar-PSMA-617 treatment study (tumor size, body weight, clinical observation)", "type": "in vivo", "method": "LNCap tumor-bearing mice animal models were used.\nExperimental Groups: • (A)^177Lu-Dar-PSMA-617 low dosage 0.25 mCi (n=7); • (B)^177Lu-Dar-PSMA-617 medium dosage 0.5 mCi (n=10); • (C)^177Lu-Dar-PSMA-617 high dosage 1 mCi (n=10).\nPositive Control Groups: • (D)^177Lu-DOTA-PSMA-617 0.5 mCi (n=7); • (E)^177Lu-DOTA-PSMA-617 1 mCi (n=10).\nNegative Control Groups: • (F) ^177LuCl3 1 mCi (n=10); • (G) normal saline (n=10)\nMethod: the day of administration was recorded as D-0, and body weight and tumor size were measured every day or every other day. After administration of ^177Lu-Dar-PSMA-617 (Group C), SPECT scan was performed at 4 h, 24 h, 72 h, 120 h, and 240 h after the administration; the control groups ^177Lu-DOTA-PSMA-617 (Group E) and ^177LuCl3 (Group F) were respectively subjected to SPECT scan at 2 h, 24 h, 72 h, and 120 h (240 h) (refer to FIG. 7, group C, group E, and group F in sequence from top to bottom). The animals were kept stationary, and CT scan was completed before/after the SPECT scan. Prior to the scan, the animals were subjected to respiratory anesthesia with isoflurane through an anesthesia machine, and the animals having undergone anesthesia induction were placed on a SPECT/CT bed. During the scan, the animals continuously inhaled isoflurane to maintain anesthesia effect. Each bed was statically scanned for 10-30 min and scan time was recorded."}, "[8]": {"test_system": "MC38/MC38-hPDL1 bilateral tumor-bearing mice", "test": "^89Zr-Dar-KN035 PET imaging study", "type": "in vivo", "method": "Method: MC38/MC38-hPDL1 bilateral tumor-bearing mice were injected with the ^89Zr-Dar-KN035 (100 μCi) through tail vein, wherein MC38 was a tumor low-expressing PDL1, and MC38-hPDL1 was a tumor high-expressing PDL1. Dynamic scan was performed for 60 min during the administration, and static whole body scan was performed for 10 min at different time points of 1-168 h after the administration. A mouse PET scanning image is shown in FIG. 10, with MC38 on the left and MC38-hPDL1 on the right."}}}
{"molecule": "Cc1cc2c(O)c(c1)CN(CC(=O)O)Cc1cccc(n1)CN(CC(=O)NC[C@H]1CC[C@H](C(=O)N[C@@H](Cc3ccc4ccccc4c3)C(=O)NCCCC[C@H](NC(=O)N[C@@H](CCC(=O)O)C(=O)O)C(=O)O)CC1)Cc1cc(C)cc(c1O)CN(CC(=O)O)Cc1cccc(n1)CN(CC(=O)O)C2", "note": "[^89Zr-Dar-PSMA-617, metal not drawn]", "values": [{"measurement": "half-life period in blood", "setting": "[1]", "value": 4.57, "unit": "h"}, {"measurement": "radiochemical purity after incubation in mouse serum", "setting": "[2]", "value": 96, "unit": "%"}, {"measurement": "radiochemical purity after incubation in normal saline", "setting": "[3]; normal saline, 37° C. water bath incubator", "value": 98, "unit": "%"}, {"measurement": "radiochemical purity after being placed at room temperature", "setting": "[3]; room temperature", "value": 98, "unit": "%"}, {"measurement": "main distribution of radioactive substances", "setting": "LNCap tumor-bearing mice", "value": "mainly distributed in the bladder and kidneys"}]}
{"molecule": "O=C([O-])CN1CCN(CC(=O)[O-])CCN(CC(=O)[O-])CCN(CC(=O)[O-])CC1.[177Lu+3].[H+]", "note": "[^177Lu-DOTA]", "values": [{"measurement": "internalization rate", "setting": "LNCap cells [4]; 1 h incubation", "value": 35.46, "unit": "%"}, {"measurement": "internalization rate", "setting": "LNCap cells [4]; 4 h incubation", "value": 165.46, "unit": "%"}, {"measurement": "internalization rate", "setting": "LNCap cells [4]; 24 h incubation", "value": 8.33, "unit": "%"}, {"measurement": "efflux rate", "setting": "LNCap cells [5]; 1 h incubation", "value": 76.83, "unit": "%"}, {"measurement": "efflux rate", "setting": "LNCap cells [5]; 4 h incubation", "value": 63.22, "unit": "%"}, {"measurement": "efflux rate", "setting": "LNCap cells [5]; 24 h incubation", "value": 9.38, "unit": "%"}, {"measurement": "uptake rate of the blocking group", "setting": "LNCap cells [6]; 1 h", "value": 0.26, "unit": "%"}, {"measurement": "uptake rate", "setting": "LNCap cells [6]; 1 h incubation", "value": 0.22, "unit": "%"}, {"measurement": "uptake rate of the blocking group", "setting": "LNCap cells [6]; 4 h", "value": 0.24, "unit": "%"}, {"measurement": "uptake rate", "setting": "LNCap cells [6]; 4 h incubation", "value": 0.20, "unit": "%"}, {"measurement": "uptake rate of the blocking group", "setting": "LNCap cells [6]; 24 h", "value": 1.97, "unit": "%"}, {"measurement": "uptake rate", "setting": "LNCap cells [6]; 24 h incubation", "value": 2.01, "unit": "%"}]}
{"molecule": "[177Lu+3].[Cl-].[Cl-].[Cl-]", "note": "[^177LuCl3]", "values": [{"measurement": "body weight change", "setting": "[7]; 1 mCi (Group C, Group F)", "value": "decrease rapidly"}, {"measurement": "adverse effects (conclusion)", "setting": "[7]; 1 mCi (Group F)", "value": "severe adverse effects"}, {"measurement": "gross anatomy of dead mice", "setting": "[7]; 1 mCi (Group F)", "value": "skeletal darkening and blood stasis of bone marrow"}, {"measurement": "animal clinical observation", "setting": "[7]; 1 mCi (Group F), starting from D-5, all animals at the later stage", "value": "weight loss and arched back"}]}
{"molecule": "^89Zr-Dar-KN035 (conjugate, chains of the INN, looked up, 89Zr with Dar chelator) VH: QVQLVESGGGLVQPGGSLRLSCAASGKMSSRRCMAWFRQAPGKERERVAKLLTTSGSTYLADSVKGRFTISRDNSKNTVYLQMNSLRAEDTAVYYCAADSFEDPTCTLVTSSGAFQYWGQGTLVTVSS", "values": [{"measurement": "uptake in tumor high-expressing PDL1 (MC38-hPDL1)", "setting": "[8]; 100 μCi tail vein, PET 1-168 h", "value": "significantly taken up"}, {"measurement": "uptake in tumor low-expressing PDL1 (MC38)", "setting": "[8]; 100 μCi tail vein, PET 1-168 h", "value": "almost not taken up"}, {"measurement": "tumor selectivity", "setting": "[8]; MC38-hPDL1 versus MC38", "value": "good tumor selectivity"}]}
